Results from PubChem BioAssay AID743396 (Broad Institute, 2014).
Activity calls are given as the source filed them.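 Rule for the calls: active = fitted curve reaches a 40% rise in fluorescent cells at or below the top valid dose; inactive = opposite-direction effect, or the rest.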

These compounds were tested on mTEFS fibroblasts autofluorescence, GFP-channel imaging, 3 days (assay: compound fluorescence in GFP channel, mTEFS cells – imaging, mTEFS fibroblasts, cherry-pick, artefact control for X-chromosome reactivation project, dose response (AID 743396)). Conditions: cells pretreated with 5-aza-dC.

Compound | AC40
COc1ccc(N(C)S(=O)(=O)c2cccc(C(=O)NCC(c3cccs3)N(C)C)c2)cc1 (centres undefined) | 13.9 µM
COc1ccc(N2CCN(C(=O)c3cc4c(s3)-c3ccccc3OC4)CC2)cc1 | > 19.5 µM (inactive)
CC(=O)Oc1cccc(N2C(=O)c3cccc4c([N+](=O)[O-])ccc(c34)C2=O)c1 | > 19.5 µM (inactive)
Cc1ccc(Cl)c2c(N=Nc3ccccc3)c(O)[nH]c12 | > 19.5 µM (inactive)
